# Tests used:
# Format in all cases: functional
# [1] = tested on: Mycobacterium tuberculosis; test: Antimycobacterial activity against Mycobacterium tuberculosis H37Rv ATCC27294 measured after 28 days by two-fold serial dilution method; conditions: H37Rv ATCC 27294, 672 h, time 28 day
# [2] = tested on: Mycobacterium tuberculosis; test: Antimycobacterial activity against Mycobacterium tuberculosis H37Rv by filter paper disc diffusion method
# [3] = tested on: Mycobacterium tuberculosis; test: Antimycobacterial activity against Mycobacterium tuberculosis H37Rv incubated for 5 days by microplate alamar blue assay; conditions: 120 h, time 5 day
# [4] = tested on: Mycobacterium tuberculosis; test: Antimycobacterial activity against Mycobacterium tuberculosis H37Rv ATCC […] by microplate alamar blue assay; conditions: 168 h, time 7 day
# [5] = tested on: Mycobacterium tuberculosis; test: Antimycobacterial activity against Mycobacterium tuberculosis H37Rv by Lowenstein-Jensen method relative to control
# [6] = tested on: Mycobacterium tuberculosis; test: Antimycobacterial activity against Mycobacterium tuberculosis H37Rv by microplate alamar blue assay
# [7] = tested on: Mycobacterium tuberculosis; test: Antimycobacterial activity against Mycobacterium tuberculosis H37Ra ATCC 25177 incubated for 7 days by microplate alamar blue assay; conditions: H37Ra ATCC 25177, 168 h, time 7 day
structure (smiles),measurement,setting,value
N=C1S/C(=C\c2ccccc2F)C(=O)N1c1cccc(C(F)(F)F)c1,MIC,[1],4.25 µM
O=C1CSC(c2cccc([N+](=O)[O-])c2)N1C(=O)NCCCn1ncc2ccc([N+](=O)[O-])cc21 (stereo not given),MIC,[2],4.25 µg/mL
O=C1CSC(c2ccccc2Br)N1C(=O)NCCCn1ncc2ccc([N+](=O)[O-])cc21 (stereo not given),MIC,[2],4.75 µg/mL
N=C1S/C(=C\c2cc([N+](=O)[O-])cs2)C(=O)N1c1nc2ccc([N+](=O)[O-])cc2s1,MIC,[1],6.52 µM
CN(C)c1ccc(/C=C2\SC(=S)N(c3ccc(C=O)cc3)C2=O)cc1,MIC,[3],12.5 µg/mL
O=C1CSC(c2ccc(Cl)cc2)N1C1=NN2C(=CSC2c2ccccc2)S1 (stereo not given),MIC,[4],3.12 µg/mL
O=C1CSC(c2ccc(Br)cc2)N1C(=O)NCCCn1ncc2ccc([N+](=O)[O-])cc21 (stereo not given),MIC,[2],5.25 µg/mL
N=C1S/C(=C\c2ccccc2F)C(=O)N1c1ncc([N+](=O)[O-])s1,MIC,[1],3.9 µM
O=C(NCCCNc1ncc([N+](=O)[O-])s1)N1C(=O)/C(=C/c2cccc([N+](=O)[O-])c2)SC1c1cccc([N+](=O)[O-])c1 (stereo not given),MIC,[5],2.5 µg/mL
O=C(NCCCn1ncc2ccc([N+](=O)[O-])cc21)N1C(=O)/C(=C/c2ccc([N+](=O)[O-])cc2)SC1c1ccc([N+](=O)[O-])cc1 (stereo not given),MIC,[2],1.5 µg/mL
Cc1ccc(C2SC(C)C(=O)N2c2nc(N3CCN(C)CC3)n[nH]2)cc1 (stereo not given),MIC,[6],≤ 1 µg/mL
Cc1ccc(NN2C(=O)CSC2c2ccc(-n3ccnc3)cc2)cc1 (stereo not given),MIC,[3],14.3 µM
O=C1/C(=C/c2ccc(F)cc2)SC(=S)N1Cc1nc2ccccc2[nH]1,MIC,[6],6.25 µg/mL
O=C1CSC(c2ccc3c(c2)OCO3)N1c1nc(N2CCOCC2)n[nH]1 (stereo not given),MIC,[6],≤ 1 µg/mL
O=C(NCCCNc1ncc([N+](=O)[O-])s1)N1C(=O)/C(=C/c2ccccc2)SC1c1ccccc1 (stereo not given),MIC,[5],12.5 µg/mL
O=C(NN1C(=O)CSC1c1c(-c2ccccc2)[nH]c2ccccc12)c1[nH]c2ccc(Cl)cc2c1-c1ccccc1 (stereo not given),MIC,[3],12.5 µg/mL
COc1ccc2oc(=O)cc(C3SCC(=O)N3c3ccc(Cl)cc3)c2c1 (stereo not given),MIC,[6],25 µg/mL
COc1cc(/C=C2\SC(=N)N(c3nc4ccc([N+](=O)[O-])cc4s3)C2=O)cc(OC)c1OC,MIC,[1],7.4 µM
Cc1ccc2oc(=O)cc(C3SCC(=O)N3c3ccccc3)c2c1 (stereo not given),MIC,[6],25 µg/mL
CN1CCN(c2n[nH]c(N3C(=O)CSC3c3ccc4c(c3)OCO4)n2)CC1 (stereo not given),MIC,[6],≤ 1 µg/mL
O=C1CSC(c2cccc(Br)c2)N1C(=O)NCCCn1ncc2ccc([N+](=O)[O-])cc21 (stereo not given),MIC,[2],4.5 µg/mL
COc1ccc(/C=C2\SC(=S)NC2=O)cc1,MIC,[3],0.1 µg/mL
COc1ccc(/C=C2\SC(=S)N(c3ccc(N)cc3)C2=O)cc1,MIC,[3],12.5 µg/mL
O=C(NCCCn1ncc2ccc([N+](=O)[O-])cc21)N1C(=O)/C(=C/c2ccc(Cl)cc2)SC1c1ccc(Cl)cc1 (stereo not given),MIC,[2],3.25 µg/mL
COc1cc(/C=N/NC(=S)Nc2ccccc2)ccc1OC(=O)CC1SC(=O)NC1=O (stereo not given),MIC,[7],2 µg/mL
O=C1CSC(c2c(-c3ccccc3)[nH]c3ccccc23)N1c1nc(-c2ccc(Cl)cc2)cs1 (stereo not given),MIC,[3],50 µg/mL
COc1cc(/C=N/NC(=S)Nc2ccc(Cl)cc2)ccc1OC(=O)CC1SC(=O)NC1=O (stereo not given),MIC,[7],2 µg/mL
O=C(NCCCNc1ncc([N+](=O)[O-])s1)N1C(=O)/C(=C/c2ccccc2Br)SC1c1ccccc1Br (stereo not given),MIC,[5],6.25 µg/mL
N=C1S/C(=C\c2ccccc2F)C(=O)N1c1nc2ccc([N+](=O)[O-])cc2s1,MIC,[1],4.26 µM
N=C1S/C(=C\c2ccc(OCc3ccccc3)cc2)C(=O)N1c1cccc(C(F)(F)F)c1,MIC,[1],6.88 µM
O=C(NCCCn1ncc2ccc([N+](=O)[O-])cc21)N1C(=O)/C(=C/c2ccccc2Cl)SC1c1ccccc1Cl (stereo not given),MIC,[2],2.25 µg/mL
O=C(NCCCn1ncc2ccc([N+](=O)[O-])cc21)N1C(=O)/C(=C/c2ccc(Br)cc2)SC1c1ccc(Br)cc1 (stereo not given),MIC,[2],2.5 µg/mL
COc1ccc(C2SCC(=O)N2C2=NN3C(=CSC3c3ccc(N(C)C)cc3)S2)cc1 (stereo not given),MIC,[4],3.12 µg/mL
COc1ccc(N2C(=O)CSC2c2cc(=O)oc3ccc(C)cc23)cc1 (stereo not given),MIC,[6],25 µg/mL
O=C1CSC(c2ccccc2)N1C(=O)NCCCn1ncc2ccc([N+](=O)[O-])cc21 (stereo not given),MIC,[2],7.5 µg/mL
N=C1S/C(=C\c2cc([N+](=O)[O-])co2)C(=O)N1c1nc2ccc([N+](=O)[O-])cc2s1,MIC,[1],6.81 µM
O=C1CSC(c2ccc(O)cc2)N1C1=NN2C(=CSC2c2ccc(O)cc2)S1 (stereo not given),MIC,[4],1.6 µg/mL
O=C1CSC(c2ccc([N+](=O)[O-])cc2)N1C(=O)NCCCn1ncc2ccc([N+](=O)[O-])cc21 (stereo not given),MIC,[2],4.25 µg/mL
COc1cc(/C=N/NC(=S)Nc2ccccc2)ccc1OC(=O)/C=C1\SC(=O)NC1=O,MIC,[7],2 µg/mL
CN(C)c1ccc(C2SC=C3SC(N4C(=O)CSC4c4ccccc4)=NN32)cc1 (stereo not given),MIC,[4],6.25 µg/mL
O=C1/C(=C/c2ccccc2)SC(=S)N1Cc1nc2ccccc2[nH]1,MIC,[6],6.25 µg/mL
O=C(NCCCn1ncc2ccc([N+](=O)[O-])cc21)N1C(=O)/C(=C/c2cccc(Cl)c2)SC1c1cccc(Cl)c1 (stereo not given),MIC,[2],1.5 µg/mL
COc1cc(/C=N/NC(=S)Nc2cccc(Cl)c2)ccc1OC(=O)/C=C1\SC(=O)NC1=O,MIC,[7],2 µg/mL
COc1cc(/C=N/NC(=S)Nc2cccc(Cl)c2)ccc1OC(=O)CC1SC(=O)NC1=O (stereo not given),MIC,[7],2 µg/mL
COc1ccc(/C=C2\SC(=N)N(c3cccc(C(F)(F)F)c3)C2=O)cc1,MIC,[1],4.12 µM
O=C1N/C(=N\c2ccc(S(=O)(=O)Nc3cc(Cl)c(Cl)cc3Cl)cc2)S/C1=C\c1ccc(O)cc1,MIC,[6],3.12 µg/mL
O=C(NCCCNc1ncc([N+](=O)[O-])s1)N1C(=O)/C(=C/c2ccccc2Cl)SC1c1ccccc1Cl (stereo not given),MIC,[5],2.5 µg/mL
Nc1ccc([N+](=O)[O-])cc1N1C(=O)/C(=C/c2ccccc2)SC1=S,MIC,[3],12.5 µg/mL
NC(=O)c1cnccn1 [PYRAZINAMIDE],MIC,[3],3.12 µg/mL
same,MIC,[4],3.12 µg/mL
O=C1CSC(c2ccccc2)N1C1=NN2C(=CSC2c2ccccc2)S1 (stereo not given),MIC,[4],6.25 µg/mL
COc1ccc(/C=C2\SC(=N)N(c3ncc([N+](=O)[O-])s3)C2=O)cc1,MIC,[1],3.78 µM
O=C1/C(=C/c2ccc(O)cc2)SC(=S)N1Cc1nc2ccccc2[nH]1,MIC,[6],6.25 µg/mL
O=C1CSC(c2ccc(Cl)cc2)N1C(=O)NCCCn1ncc2ccc([N+](=O)[O-])cc21 (stereo not given),MIC,[2],4.75 µg/mL
O=C(NCCCn1ncc2ccc([N+](=O)[O-])cc21)N1C(=O)/C(=C/c2ccccc2)SC1c1ccccc1 (stereo not given),MIC,[2],6.25 µg/mL
O=C(NCCCNc1ncc([N+](=O)[O-])s1)N1C(=O)/C(=C/c2cccc(Cl)c2)SC1c1cccc(Cl)c1 (stereo not given),MIC,[5],2.75 µg/mL
O=C(NCCCn1ncc2ccc([N+](=O)[O-])cc21)N1C(=O)/C(=C/c2ccccc2[N+](=O)[O-])SC1c1ccccc1[N+](=O)[O-] (stereo not given),MIC,[2],2.25 µg/mL
O=C(NCCCNc1ncc([N+](=O)[O-])s1)N1C(=O)/C(=C/c2cccc(Br)c2)SC1c1cccc(Br)c1 (stereo not given),MIC,[5],2.75 µg/mL
COc1ccccc1C1SCC(=O)N1C1=NN2C(=CSC2c2ccc(N(C)C)cc2)S1 (stereo not given),MIC,[4],3.12 µg/mL
O=C1CSC(c2ccccc2)N1C1=NN2C(=CSC2c2ccc(O)cc2)S1 (stereo not given),MIC,[4],6.25 µg/mL
CN[C@@H]1[C@H](O[C@H]2[C@H](O[C@H]3[C@H](O)[C@@H](O)[C@H](N=C(N)N)[C@@H](O)[C@@H]3N=C(N)N)O[C@@H](C)[C@]2(O)C=O)O[C@@H](CO)[C@H](O)[C@H]1O [STREPTOMYCIN],MIC,[6],6.25 µg/mL
same,MIC,[3],6.25 µg/mL
same,MIC,[4],6.25 µg/mL
O=C1CSC(c2cccc(Cl)c2)N1C(=O)NCCCn1ncc2ccc([N+](=O)[O-])cc21 (stereo not given),MIC,[2],4.5 µg/mL
O=C(NCCCn1ncc2ccc([N+](=O)[O-])cc21)N1C(=O)/C(=C/c2cccc(Br)c2)SC1c1cccc(Br)c1 (stereo not given),MIC,[2],1.25 µg/mL
COc1ccc(/C=C2\SC(=S)N(c3cc([N+](=O)[O-])ccc3N)C2=O)cc1,MIC,[3],12.5 µg/mL
O=C1CSC(c2ccccc2Cl)N1C1=NN2C(=CSC2c2ccccc2)S1 (stereo not given),MIC,[4],3.12 µg/mL
O=C1CSC(c2ccccc2O)N1C1=NN2C(=CSC2c2ccc(O)cc2)S1 (stereo not given),MIC,[4],3.12 µg/mL
Cc1ccc(/C=C2\SC(=S)N(Cc3nc4ccccc4[nH]3)C2=O)cc1,MIC,[6],6.25 µg/mL
N=C1S/C(=C\c2ccc(OCc3ccccc3)cc2)C(=O)N1c1ncc([N+](=O)[O-])s1,MIC,[1],6.4 µM
O=C1CSC(c2c(-c3ccccc3)[nH]c3ccccc23)N1c1nc(-c2ccccc2)cs1 (stereo not given),MIC,[3],50 µg/mL
O=C1NC(=S)S/C1=C\c1ccc[nH]1,MIC,[3],0.2 µg/mL
O=C1CSC(c2ccccc2[N+](=O)[O-])N1C(=O)NCCCn1ncc2ccc([N+](=O)[O-])cc21 (stereo not given),MIC,[2],3.75 µg/mL
Cc1ccc(C2SC=C3SC(N4C(=O)CSC4c4ccccc4C)=NN32)cc1 (stereo not given),MIC,[4],3.12 µg/mL
O=C(NCCCn1ncc2ccc([N+](=O)[O-])cc21)N1C(=O)/C(=C/c2ccccc2Br)SC1c1ccccc1Br (stereo not given),MIC,[2],4.25 µg/mL
CC[C@@H](CO)NCCN[C@@H](CC)CO [ETHAMBUTOL],MIC,[1],7.64 µM
COc1cc(/C=C2\SC(=N)N(c3cccc(C(F)(F)F)c3)C2=O)cc(OC)c1OC,MIC,[1],7.11 µM
O=C1NC(=S)S/C1=C\c1cccc([N+](=O)[O-])c1,MIC,[3],0.05 µg/mL
Cc1ccc(C2SC=C3SC(N4C(=O)CSC4c4ccccc4)=NN32)cc1 (stereo not given),MIC,[4],625 µg/mL
O=C(O)c1ccc(N2C(=O)CSC2c2ccc(F)cc2)cc1O (stereo not given),MIC,[6],6.25 µg/mL
O=C1CSC(c2ccc(-n3cncn3)cc2)N1Nc1ccccc1 (stereo not given),MIC,[3],14.3 µM
Cc1ccc(C2SC=C3SC(N4C(=O)CSC4c4ccc(C)cc4)=NN32)cc1 (stereo not given),MIC,[4],1.6 µg/mL
N=C1S/C(=C\c2cc([N+](=O)[O-])co2)C(=O)N1c1ncc([N+](=O)[O-])s1,MIC,[1],7.49 µM
O=C(NCCCn1ncc2ccc([N+](=O)[O-])cc21)N1C(=O)/C(=C/c2cccc([N+](=O)[O-])c2)SC1c1cccc([N+](=O)[O-])c1 (stereo not given),MIC,[2],1.75 µg/mL
N=C1S/C(=C\c2cc([N+](=O)[O-])cs2)C(=O)N1c1ncc([N+](=O)[O-])s1,MIC,[1],7.21 µM
O=C(CC1SC(=O)NC1=O)Oc1ccc(/C=N/NC(=S)Nc2ccc(Cl)cc2)cc1 (stereo not given),MIC,[7],2 µg/mL
COc1cc(/C=C2\SC(=N)N(c3ncc([N+](=O)[O-])s3)C2=O)cc(OC)c1OC,MIC,[1],3.31 µM
N=C1S/C(=C\c2cc([N+](=O)[O-])co2)C(=O)N1c1cccc(C(F)(F)F)c1,MIC,[1],4.07 µM
O=C1CSC(c2ccc(-n3ccnc3)cc2)N1Nc1ccccc1 (stereo not given),MIC,[3],14.3 µM
O=C1CSC(c2ccccc2Cl)N1C(=O)NCCCn1ncc2ccc([N+](=O)[O-])cc21 (stereo not given),MIC,[2],4.25 µg/mL
